≈ marks a conversion by molar mass, not a printed value.
How the values were obtained:
TK6 [1] = experiment: Genotoxicity in p53-competent human TK6 cells in absence of Sprague-Dawley rat S9 fraction by GADD45alpha GFP reporter assay; format: toxicity, cell-based
[2] = target: 72 kDa type IV collagenase (Homo sapiens, UniProt P08253); experiment: Inhibition of MMP2 (unknown origin)
[3] = Solubility of the compound in propylene glycol/ethanol96 at 30 mg/ml after 24 hrs by UV-spectrometric analysis; format: physicochemical; conditions: propylene glycol/ethanol96
[4] = target: Disintegrin and metalloproteinase domain-containing protein 17 (Homo sapiens, UniProt P78536); experiment: Inhibition of TACE in human PBMC assessed as reduction in LPS-induced TNFalpha production incubated overnight by HTRF assay; format: cell-based
Neutrophil collagenase = Neutrophil collagenase (Homo sapiens, UniProt P22894); experiment: Inhibition of MMP8 (unknown origin)
[5] = target: T1, Disintegrin and metalloproteinase domain-containing protein 10 (Homo sapiens, UniProt O14672); experiment: Inhibition of ADAM10 (unknown origin)
T1 sequence (O14672 whole entry): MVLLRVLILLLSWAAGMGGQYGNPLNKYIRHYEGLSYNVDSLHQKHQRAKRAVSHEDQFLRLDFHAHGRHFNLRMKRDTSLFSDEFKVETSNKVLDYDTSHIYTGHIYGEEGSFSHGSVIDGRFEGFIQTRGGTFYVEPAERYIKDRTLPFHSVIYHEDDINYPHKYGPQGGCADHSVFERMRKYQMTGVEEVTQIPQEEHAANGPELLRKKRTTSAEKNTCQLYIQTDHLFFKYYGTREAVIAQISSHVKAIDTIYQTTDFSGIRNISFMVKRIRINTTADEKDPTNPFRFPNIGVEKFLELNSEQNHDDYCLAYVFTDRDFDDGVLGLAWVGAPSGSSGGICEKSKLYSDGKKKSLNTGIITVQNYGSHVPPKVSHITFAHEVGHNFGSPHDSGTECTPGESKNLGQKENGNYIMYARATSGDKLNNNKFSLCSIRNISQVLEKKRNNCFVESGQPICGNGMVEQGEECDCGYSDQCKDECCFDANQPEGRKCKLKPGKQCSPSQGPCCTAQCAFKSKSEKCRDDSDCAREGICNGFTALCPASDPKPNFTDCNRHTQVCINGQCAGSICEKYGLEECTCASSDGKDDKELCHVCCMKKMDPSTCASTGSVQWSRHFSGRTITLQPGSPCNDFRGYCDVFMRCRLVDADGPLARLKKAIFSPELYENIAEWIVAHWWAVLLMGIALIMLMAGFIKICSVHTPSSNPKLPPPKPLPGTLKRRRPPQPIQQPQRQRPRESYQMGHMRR

[6] = Stability of the compound in propylene glycol/ethanol96 at 0.1 mg/ml measured up to 3 months by HPLC analysis; format: physicochemical; conditions: read-out: Stability
Interstitial collagenase = target: T2, Interstitial collagenase (Homo sapiens, UniProt P03956); experiment: Inhibition of recombinant human MMP1 catalytic domain using Mca-Pro-Leu-Gly-Leu-Dpa-Ala-Arg-NH2 as substrate after 10 mins by fluorescence assay
T2 sequence (P03956 whole entry): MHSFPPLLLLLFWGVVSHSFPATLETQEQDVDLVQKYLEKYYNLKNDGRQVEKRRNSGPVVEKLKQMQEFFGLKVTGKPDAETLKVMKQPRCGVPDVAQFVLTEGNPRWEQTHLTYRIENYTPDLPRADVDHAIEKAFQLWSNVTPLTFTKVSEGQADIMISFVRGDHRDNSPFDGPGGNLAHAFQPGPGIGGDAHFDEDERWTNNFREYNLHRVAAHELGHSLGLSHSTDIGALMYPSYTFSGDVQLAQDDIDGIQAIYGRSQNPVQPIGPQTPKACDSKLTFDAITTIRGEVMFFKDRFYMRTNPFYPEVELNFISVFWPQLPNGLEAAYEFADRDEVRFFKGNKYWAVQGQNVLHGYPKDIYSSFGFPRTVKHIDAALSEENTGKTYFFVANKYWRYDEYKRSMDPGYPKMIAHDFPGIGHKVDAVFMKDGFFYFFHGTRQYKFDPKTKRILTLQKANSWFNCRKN

TK6 [7] = experiment: Genotoxicity in human TK6 cells in presence of rat S9 fraction by Giemsa staining based micronucleus assay; format: toxicity, cell-based
[8] = target: Voltage-gated inwardly rectifying potassium channel KCNH2 (Homo sapiens, UniProt Q12809); experiment: Inhibition of human ERG expressed in CHO-K1 cells assessed as reduction in tail current amplitude by patch clamp assay; format: cell-based
[9] = Aqueous solubility of the compound in PBS at pH 7.4 at 20 degC after 24 hrs by HPLC analysis; format: physicochemical
Salmonella typhimurium = experiment: Mutagenicity in Salmonella typhimurium TA100 in absence of rat S9 fraction by Ames test; format: toxicity, organism-based; conditions: salmonella enterica subsp. enterica serovar typhimurium
[10] = target: T3, Disintegrin and metalloproteinase domain-containing protein 9 (Homo sapiens, UniProt Q13443); experiment: Inhibition of ADAM9 (unknown origin)
T3 sequence (Q13443 whole entry): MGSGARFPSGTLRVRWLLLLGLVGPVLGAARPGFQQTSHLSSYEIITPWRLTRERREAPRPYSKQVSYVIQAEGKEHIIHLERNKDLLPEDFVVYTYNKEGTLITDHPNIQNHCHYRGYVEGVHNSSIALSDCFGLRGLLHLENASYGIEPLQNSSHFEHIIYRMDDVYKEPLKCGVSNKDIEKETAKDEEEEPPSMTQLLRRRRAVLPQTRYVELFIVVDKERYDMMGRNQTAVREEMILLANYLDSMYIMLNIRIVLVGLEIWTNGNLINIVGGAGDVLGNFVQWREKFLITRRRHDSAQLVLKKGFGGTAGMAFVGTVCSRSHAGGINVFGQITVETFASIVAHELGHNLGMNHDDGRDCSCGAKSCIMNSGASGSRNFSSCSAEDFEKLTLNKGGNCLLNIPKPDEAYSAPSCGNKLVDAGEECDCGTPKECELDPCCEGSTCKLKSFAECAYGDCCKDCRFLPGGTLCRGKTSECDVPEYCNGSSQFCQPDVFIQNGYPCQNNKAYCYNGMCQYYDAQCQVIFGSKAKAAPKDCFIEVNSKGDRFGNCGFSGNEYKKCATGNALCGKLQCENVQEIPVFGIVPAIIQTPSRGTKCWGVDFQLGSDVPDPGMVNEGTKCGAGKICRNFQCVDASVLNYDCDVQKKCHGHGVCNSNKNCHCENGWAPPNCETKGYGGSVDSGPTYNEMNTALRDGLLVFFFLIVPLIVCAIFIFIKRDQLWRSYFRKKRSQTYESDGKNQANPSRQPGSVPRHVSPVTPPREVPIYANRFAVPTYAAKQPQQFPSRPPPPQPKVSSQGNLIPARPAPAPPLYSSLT

[11] = Intrinsic clearance in human hepatocytes assessed per million cells at 1 uM by LC-MS/MS analysis; format: ADME, cell-based, Hepatocyte; conditions: human hepatocytes, read-out: CLH
[12] = target: Macrophage metalloelastase (Homo sapiens, UniProt P39900); experiment: Inhibition of MMP12 (unknown origin)
[13] = target: Matrix metalloproteinase-9 (Homo sapiens, UniProt P14780); experiment: Inhibition of MMP9 (unknown origin)
Sequence of Matrix metalloproteinase-9 (P14780 whole entry): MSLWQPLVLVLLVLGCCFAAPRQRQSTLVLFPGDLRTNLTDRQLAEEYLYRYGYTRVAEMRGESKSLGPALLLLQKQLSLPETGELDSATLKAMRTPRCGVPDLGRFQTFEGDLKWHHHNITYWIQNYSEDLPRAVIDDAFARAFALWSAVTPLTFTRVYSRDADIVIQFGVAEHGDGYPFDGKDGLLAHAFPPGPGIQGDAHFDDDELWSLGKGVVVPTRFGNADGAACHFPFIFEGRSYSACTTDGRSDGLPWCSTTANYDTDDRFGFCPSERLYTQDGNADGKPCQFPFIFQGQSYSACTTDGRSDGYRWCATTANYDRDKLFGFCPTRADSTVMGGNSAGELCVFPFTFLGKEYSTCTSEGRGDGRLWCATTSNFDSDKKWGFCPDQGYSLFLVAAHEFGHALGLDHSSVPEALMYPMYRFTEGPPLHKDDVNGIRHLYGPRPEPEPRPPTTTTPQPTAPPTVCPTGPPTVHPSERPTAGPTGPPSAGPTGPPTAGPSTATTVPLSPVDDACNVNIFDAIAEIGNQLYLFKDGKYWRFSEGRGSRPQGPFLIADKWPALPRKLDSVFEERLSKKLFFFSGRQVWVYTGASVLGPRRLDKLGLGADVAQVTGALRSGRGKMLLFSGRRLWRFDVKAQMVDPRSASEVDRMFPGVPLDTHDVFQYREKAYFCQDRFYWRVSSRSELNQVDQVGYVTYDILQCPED

Sequence of Macrophage metalloelastase (P39900 whole entry): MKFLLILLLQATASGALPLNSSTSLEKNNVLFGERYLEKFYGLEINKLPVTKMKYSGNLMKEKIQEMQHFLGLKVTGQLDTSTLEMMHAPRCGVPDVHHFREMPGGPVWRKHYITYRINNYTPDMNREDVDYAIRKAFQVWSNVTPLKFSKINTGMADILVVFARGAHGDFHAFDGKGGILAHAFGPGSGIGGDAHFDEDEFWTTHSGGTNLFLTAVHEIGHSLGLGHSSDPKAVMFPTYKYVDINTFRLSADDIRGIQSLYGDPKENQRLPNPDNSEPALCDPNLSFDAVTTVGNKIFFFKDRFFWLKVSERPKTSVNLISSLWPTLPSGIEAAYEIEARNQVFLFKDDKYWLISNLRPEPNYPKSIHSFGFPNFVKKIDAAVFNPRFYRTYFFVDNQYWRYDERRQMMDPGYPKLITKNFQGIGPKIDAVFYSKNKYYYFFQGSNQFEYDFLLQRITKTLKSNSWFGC
Sequence of 72 kDa type IV collagenase (P08253 whole entry): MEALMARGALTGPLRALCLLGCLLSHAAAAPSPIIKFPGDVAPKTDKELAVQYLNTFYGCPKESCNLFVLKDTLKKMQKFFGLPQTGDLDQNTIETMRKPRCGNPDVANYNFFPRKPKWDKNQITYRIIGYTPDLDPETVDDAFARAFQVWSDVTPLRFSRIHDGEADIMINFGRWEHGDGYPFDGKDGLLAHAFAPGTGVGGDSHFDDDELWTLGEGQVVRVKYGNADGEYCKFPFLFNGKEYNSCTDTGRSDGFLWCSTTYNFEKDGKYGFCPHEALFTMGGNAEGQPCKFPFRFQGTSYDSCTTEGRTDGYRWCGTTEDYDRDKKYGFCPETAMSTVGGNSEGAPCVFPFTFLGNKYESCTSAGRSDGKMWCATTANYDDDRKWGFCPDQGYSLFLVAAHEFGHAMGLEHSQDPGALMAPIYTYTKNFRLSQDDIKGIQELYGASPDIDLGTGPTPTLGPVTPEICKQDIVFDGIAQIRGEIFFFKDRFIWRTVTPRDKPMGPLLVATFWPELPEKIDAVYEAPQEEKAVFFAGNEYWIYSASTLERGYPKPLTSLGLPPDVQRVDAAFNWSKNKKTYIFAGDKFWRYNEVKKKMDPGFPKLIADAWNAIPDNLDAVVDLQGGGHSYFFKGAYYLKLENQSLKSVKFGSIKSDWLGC
Sequence of Neutrophil collagenase (P22894 whole entry, the tested form may be a part): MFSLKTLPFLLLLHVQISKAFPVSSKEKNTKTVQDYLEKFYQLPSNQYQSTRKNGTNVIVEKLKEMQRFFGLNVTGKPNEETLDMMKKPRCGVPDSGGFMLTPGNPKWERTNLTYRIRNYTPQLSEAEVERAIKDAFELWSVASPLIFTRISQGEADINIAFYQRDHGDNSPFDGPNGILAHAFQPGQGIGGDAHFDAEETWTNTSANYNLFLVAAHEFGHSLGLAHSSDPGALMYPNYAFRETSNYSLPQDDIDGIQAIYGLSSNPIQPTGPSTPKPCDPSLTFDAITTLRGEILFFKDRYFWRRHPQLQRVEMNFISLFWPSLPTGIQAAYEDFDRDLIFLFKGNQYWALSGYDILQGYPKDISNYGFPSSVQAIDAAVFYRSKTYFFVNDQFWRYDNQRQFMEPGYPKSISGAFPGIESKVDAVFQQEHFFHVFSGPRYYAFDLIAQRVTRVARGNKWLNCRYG
Sequence of Disintegrin and metalloproteinase domain-containing protein 17 (P78536 whole entry, the tested form may be a part): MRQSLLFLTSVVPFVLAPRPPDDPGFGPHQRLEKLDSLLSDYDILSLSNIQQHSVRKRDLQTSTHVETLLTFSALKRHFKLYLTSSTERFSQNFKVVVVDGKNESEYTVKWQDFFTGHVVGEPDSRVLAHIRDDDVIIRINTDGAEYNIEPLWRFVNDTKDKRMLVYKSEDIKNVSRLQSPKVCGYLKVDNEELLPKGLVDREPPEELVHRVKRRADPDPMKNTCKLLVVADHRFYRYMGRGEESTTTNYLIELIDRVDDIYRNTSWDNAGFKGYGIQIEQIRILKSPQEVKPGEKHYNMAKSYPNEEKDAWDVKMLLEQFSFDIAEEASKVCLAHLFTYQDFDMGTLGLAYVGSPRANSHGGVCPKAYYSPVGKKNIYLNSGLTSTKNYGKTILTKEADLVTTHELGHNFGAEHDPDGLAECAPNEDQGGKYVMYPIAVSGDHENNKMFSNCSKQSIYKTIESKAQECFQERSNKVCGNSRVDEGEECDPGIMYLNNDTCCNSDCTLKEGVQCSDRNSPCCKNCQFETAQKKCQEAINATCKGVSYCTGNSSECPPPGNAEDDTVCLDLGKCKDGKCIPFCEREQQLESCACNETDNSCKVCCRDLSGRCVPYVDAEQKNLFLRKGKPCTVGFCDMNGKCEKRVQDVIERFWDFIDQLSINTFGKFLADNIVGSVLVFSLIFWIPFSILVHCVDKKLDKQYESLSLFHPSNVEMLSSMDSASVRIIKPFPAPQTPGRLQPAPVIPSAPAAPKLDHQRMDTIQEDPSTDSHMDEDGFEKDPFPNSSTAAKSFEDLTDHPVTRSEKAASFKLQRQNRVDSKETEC
Sequence of Voltage-gated inwardly rectifying potassium channel KCNH2 (Q12809 whole entry): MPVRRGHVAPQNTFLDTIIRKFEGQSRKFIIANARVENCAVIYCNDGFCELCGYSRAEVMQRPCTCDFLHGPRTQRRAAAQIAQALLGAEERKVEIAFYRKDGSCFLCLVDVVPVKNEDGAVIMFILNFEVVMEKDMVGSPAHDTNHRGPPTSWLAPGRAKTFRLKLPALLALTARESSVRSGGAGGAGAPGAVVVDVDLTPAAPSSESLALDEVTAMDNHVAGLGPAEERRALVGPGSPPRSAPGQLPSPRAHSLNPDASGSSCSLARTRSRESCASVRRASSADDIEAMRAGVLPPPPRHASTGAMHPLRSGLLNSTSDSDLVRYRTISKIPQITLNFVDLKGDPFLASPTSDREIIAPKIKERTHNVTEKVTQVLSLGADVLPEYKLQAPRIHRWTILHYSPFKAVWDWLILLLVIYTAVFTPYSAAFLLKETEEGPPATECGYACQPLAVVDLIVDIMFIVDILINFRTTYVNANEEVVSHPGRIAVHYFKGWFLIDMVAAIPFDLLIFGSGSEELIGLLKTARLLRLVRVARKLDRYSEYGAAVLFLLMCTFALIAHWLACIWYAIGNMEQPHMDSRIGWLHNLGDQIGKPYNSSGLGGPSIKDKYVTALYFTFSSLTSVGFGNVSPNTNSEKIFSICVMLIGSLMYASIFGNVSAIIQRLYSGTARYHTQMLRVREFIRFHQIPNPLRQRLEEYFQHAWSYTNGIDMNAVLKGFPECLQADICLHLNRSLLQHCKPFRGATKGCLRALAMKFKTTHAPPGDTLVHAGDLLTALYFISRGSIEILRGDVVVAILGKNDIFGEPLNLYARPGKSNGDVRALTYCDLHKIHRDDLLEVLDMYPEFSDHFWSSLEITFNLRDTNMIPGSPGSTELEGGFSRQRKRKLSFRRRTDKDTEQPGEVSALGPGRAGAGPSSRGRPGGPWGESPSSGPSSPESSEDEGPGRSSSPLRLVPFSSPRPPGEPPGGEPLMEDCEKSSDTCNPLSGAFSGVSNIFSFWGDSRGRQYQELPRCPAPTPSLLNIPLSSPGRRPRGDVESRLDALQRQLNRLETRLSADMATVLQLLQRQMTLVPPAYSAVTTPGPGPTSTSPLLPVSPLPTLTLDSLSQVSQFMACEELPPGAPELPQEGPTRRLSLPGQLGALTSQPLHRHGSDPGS

| IC50 [2] [nM] | solubility at 24 h [3] [mM] | IC50 [4] [nM] | IC50 (Neutrophil collagenase) [nM] | IC50 [5] [nM] | remaining at 0.1 mg/ml [6] [%] | IC50 (Interstitial collagenase) [nM] | solubility at 24 h [9] [mM] | IC50 [10] [nM] | hepatocyte CLint at 1 µM [11] [µL/min/1e6 cells] | IC50 [12] [nM] | IC50 [13] [nM] | Structure (SMILES) | Activity (TK6 [1]) | Activity (TK6 [7]) | IC50 [8] [nM] | Activity (Salmonella typhimurium) |
| --- | --- | --- | --- | --- | --- | --- | --- | --- | --- | --- | --- | --- | --- | --- | --- | --- |
| 1000 | 45 (≈ 24.3 mg/mL) | 33 | 3700 | 1300 | 99 | 4600 | 0.062 (≈ 0.0335 mg/mL) | 480 | 14 | 6 | 2200 | Cc1cc(COc2ccc(S(=O)(=O)N(C)C3(C(=O)NO)CN(C(=O)CC(C)C)C3)cc2)c2ccccc2n1 | Non-Toxic | Non-Toxic | > 100000 | Non-Toxic |
| 890 | 56 to 57 (≈ 29.5 to 30 mg/mL) | 9 | 2600 | 950 | 99 | 4500 | 0.084 (≈ 0.0442 mg/mL) | 90 | 8 | 13 | 2100 | Cc1cc(COc2ccc(S(=O)(=O)N(C)C3(C(=O)NO)CN(C(=O)C(C)C)C3)cc2)c2ccccc2n1 | Non-Toxic | Non-Toxic | > 100000 | Non-Toxic |
